Entries after “also recorded” stand apart in the source; their conditions may differ.
Key:
[1] = tested on: skin perfusion; assay: Laser speckle contrast analysis (LASCA) of skin perfusion in pigs; format: in vivo, pig; details: anesthetized pigs, intradermal injection in neck, niacinamide 170 mM, 1-methyl-niacinamide 170 mM, prostaglandin E1 10 μg/ml, 0–15 min, n=4
Experimental: Formulations of prostaglandin E1 (10 μg/ml), niacinamide (170 mM) or saline were injected intradermally in the neck area of anesthetized pigs. A PeriCam PSI system (Perimed, Sweden) was used to record one image per second for approximately 15 min. Perfusion units per min were compared using one-way ANOVA.
Niacinamide increases subcutaneous blood flow in pigs
Video: Representative LASCA perfusion experiment.
LASCA images were recorded following intradermal injection of saline, prostaglandin E1 and niacinamide formulations into the neck area of anesthetized pigs. Saline (170 mM NaCl, 10 mM phosphate, pH 7.4) was injected into region 1 (blue) and 6 (black), 10 µg/ml prostaglandin E1 (170 mM NaCl, 10 mM phosphate, pH 7.4) was injected into region 2 (red), 170 mM niacinamide (85 mM NaCl, 10 mM phosphate, pH 7.4) was […]
was necessary). Compound x (region 4, dark red) was an additional compound studied for vasodilation but is not included in the present analysis.
(1 picture or pasted object on this page, not shown here)

[2] = tested on: porcine subcutaneous arteries; assay: Ex vivo vasorelaxation of U46619-preconstricted arteries (wire myograph); design: species or system pig; details: isolated porcine subcutaneous arteries preconstricted with U46619 (1 μM); for Effect on vascular tone (vasorelaxation): niacinamide at 200 mM, 1-methyl-niacinamide cumulative concentrations, two animals
Experimental: Vessels were cut into 1.5 mm cylindrical segments, threaded onto two 40 μm diameter stainless steel wires and mounted on a Mulvany-Halpern myograph (Danish Myograph Technology, A/S). […] Contractile force was recorded via a PowerLab unit and Labchart software (AD Instruments). Vessels were pre-stretched in calcium-free PSS to a lumen diameter of 0.9 × L100, where L100 is an estimate of the diameter of the vessel under a passive transmural pressure of 100 mmHg. This was performed using the normalization module in LabChart7.

[3] = tested on: regional subcutaneous blood flow; assay: Xenon-133 washout after injection into the neck of pigs; format: in vivo, pig; details: vehicle without insulin aspart, niacinamide 170 mM (n=21), prostaglandin E1 4 μg/ml (n=8), mean (±SD), saline –0.71
Experimental: For each experiment, an insulin aspart containing vehicle was injected on one side of a pig, while the same vehicle without insulin aspart was injected into the other side. Prostaglandin E1 was included as a positive control. A gamma sensor was mounted over each injection site to measure the decay in Xe-133 signal. […] Regression line slopes in the 0–15 min interval were compared using one-way analysis of variance (ANOVA).

[4] = Disappearance of niacinamide and 1-methyl-niacinamide from subcutaneous injection depots in pigs (tissue sampling, LC-MS/MS); details: 170 mM, 50 μl, LC-MS/MS of tissue homogenate, n=9
Experimental: Pigs (70–90 kg) were anesthetized using Zoletil mixture (1 mg/10 kg; Virbac, Denmark) with intravenous supplement of propolipid (Fresenius Kabi, Sweden). […] Tissue samples measuring ~2 x 2 cm were excised at 0 min (acute), 2, 5, 15 or 60 min after injection and immediately frozen in 2-methyl-butane. […] Following euthanasia by overdose of pentobarbital (Lundbeck, Denmark), tissue samples measuring ~10 x 10 cm were excised and injected to obtain ex vivo 0 min (acute) and 60 min depots.
Tissue samples were cut into smaller blocks, thawed and diluted with phosphate buffer (180 mM; pH 7.4) at a ratio of 3 ml to 1 g of tissue. Tissue was homogenized with two cycles (one cycle consisting of 10 sec homogenization, 60 sec pause, 10 sec homogenization) at 8800 rpm (Precellys Evolution homogenizer, Bertin Instruments, France) or until the sample was considered homogenized.
Protein was precipitated from the tissue homogenate by adding three volumes of acetonitrile. Samples were centrifuged for 30 min at 4°C and the supernatants analyzed on a QTRAP® Triple Quadrupole coupled with an Acquity liquid chromatography system (Waters, USA).

[5] = tested on: skin perfusion; assay: Laser Doppler imaging (LDI) of skin perfusion in pigs; format: in vivo, pig; details: anesthetized pigs, subcutaneous injection at 3 mm depth, niacinamide 170 mM, prostaglandin E1 10 μg/ml, baseline corrected, n=4
Experimental: LDI (moorLDI2-IR, Moor Instruments, UK) was used to record a series of images (approximately one image per 3.5 min for approximately 30 min) following a protocol in anesthetized pigs similar to the one used for LASCA. Due to the increased skin penetration depth of the LDI system, subcutaneous injections were performed at a 3 mm depth using a 32G needle. Injections were performed in areas that could be scanned in the same image.

Row | EC50 ([2]; Sus scrofa, sc, cumulative 1 μM–200 mM, PSS 37°C pH 7.4, six animals) [mM] | Structure (SMILES) | Skin perfusion by LASCA compared with saline [1] | Effect on vascular tone (vasorelaxation) [2] | Xe-133 washout regression line slope, 0–15 min interval [3] | Amount remaining in subcutaneous depot 60 min post-injection [4] | Skin perfusion by LDI compared with saline [5]
1 |  | C[n+]1cccc(C(N)=O)c1 [1-methyl-niacinamide] | did not increase the LASCA signal | no substantial effect on vascular tone; also recorded: vasorelaxation was not detected |  |  | 
2 | 11.3 | NC(=O)c1cccnc1 [niacinamide] | intermediate increase | maximal vasorelaxation | –1.24 % per min | decreased to amounts comparable to the blank control | increased skin perfusion
3 |  | CCCCC[C@H](O)/C=C/[C@H]1[C@H](O)CC(=O)[C@@H]1CCCCCCC(=O)O [prostaglandin E1] | clear increase in skin perfusion |  | –2.47 % per min |  | increased skin perfusion
